Common to all, as to format: biochemical
Holding throughout (details): 200 μg/ml Poly Glu-Tyr (4:1), ATP 1 uM, 90 min room temperature, luminescence

Test [1] deals with T1, Recombinant JAK2 (Amino acids 808-1132) (Homo sapiens, UniProt O60674).
T1 construct: JAK2 (Amino acids 808-1132; NM_004972.3); made in house; host or cells: baculovirus expression system (Bac-to-Bac)
Put plainly: Kinase-Glo Luminescent Kinase Assay, recombinant JAK2. The text has this: (§1) Recombinant JAK1 (Amino acids 850-1154; NM_002227.2), JAK2 (Amino acids 808-1132; NM_004972.3) and JAK3 (Amino acids 781-1124; NM_000215.3) used in the studies were expressed using Invitrogen's Bac-to-Bac baculovirus expression system according to manufacturer's instructions. Adenosine 5′-triphosphate was obtained from Sigma Aldrich chemicals (Cat # A7699). Poly Glu-Tyr (4:1) sodium salt was obtained from Sigma Aldrich (Cat # P0275), Kinase Glo® Luminescent Kinase assay kit was obtained from Promega (Cat # V6713) Kinase activity was assessed by Promega Kinase-Glo® Luminescent Kinase Assay kit using 200 μg/ml Poly Glu-Tyr (4:1) as substrate and ATP at 1 uM concentration. The reactions were carried out in 384 well plates in total reaction volume of 20 uL. Reaction mixtures contained 50 mM HEPES pH 7.4, 5 mM MgCl2, 1 mM DTT, 0.01% BSA, 0.01% Tween 20. Kinase was pre-incubated with compounds or 1% DMSO for 5 min before addition of substrate and ATP to check for inhibition. Kinase reactions were carried out at room temperature for 90 min. The reactions were stopped by adding 5 μl of Kinase Glo® reagent & 10 μl of reaction mixture followed by measuring luminescence. The luminescent signal is correlated with the amount of ATP present at the end of kinase reaction and is inversely correlated with the amount of kinase activity. For each data point, % inhibition is calculated based on uninhibited reaction (without compound) which is considered as 100% activity over no enzyme or substrate controls. Dose response data is then fit using a four parameter logistic equation using Graph-pad Prism 5 software to determine inhibition constant 50 (IC50).
(In general: In Kinase-Glo more light means more ATP remaining.)

Test [2] concerns the target T2, Recombinant JAK3 (Amino acids 781-1124) (Homo sapiens, UniProt P52333).
T2 construct: JAK3 (Amino acids 781-1124; NM_000215.3); made in house; host or cells: baculovirus expression system (Bac-to-Bac)
Put plainly: Kinase-Glo Luminescent Kinase Assay, recombinant JAK3.
Description: as §1

Test [3] addresses T3, Recombinant JAK1 (Amino acids 850-1154) (Homo sapiens, UniProt P23458).
T3 construct: Recombinant JAK1 (Amino acids 850-1154; NM_002227.2); made in house; host or cells: baculovirus expression system (Bac-to-Bac)
Put plainly: Kinase-Glo Luminescent Kinase Assay, recombinant JAK1.
Description: as §1

T2 sequence (P52333 781-1124): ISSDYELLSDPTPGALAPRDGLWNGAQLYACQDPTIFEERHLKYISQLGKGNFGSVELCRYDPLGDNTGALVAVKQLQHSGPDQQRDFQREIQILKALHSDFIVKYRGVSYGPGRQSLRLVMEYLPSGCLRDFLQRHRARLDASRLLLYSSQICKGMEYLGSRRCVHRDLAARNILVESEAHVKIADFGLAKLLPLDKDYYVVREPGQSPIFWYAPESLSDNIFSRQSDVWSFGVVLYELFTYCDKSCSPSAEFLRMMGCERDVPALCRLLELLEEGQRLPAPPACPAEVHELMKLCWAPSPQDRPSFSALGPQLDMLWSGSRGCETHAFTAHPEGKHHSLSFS
T3 sequence (P23458 850-1154): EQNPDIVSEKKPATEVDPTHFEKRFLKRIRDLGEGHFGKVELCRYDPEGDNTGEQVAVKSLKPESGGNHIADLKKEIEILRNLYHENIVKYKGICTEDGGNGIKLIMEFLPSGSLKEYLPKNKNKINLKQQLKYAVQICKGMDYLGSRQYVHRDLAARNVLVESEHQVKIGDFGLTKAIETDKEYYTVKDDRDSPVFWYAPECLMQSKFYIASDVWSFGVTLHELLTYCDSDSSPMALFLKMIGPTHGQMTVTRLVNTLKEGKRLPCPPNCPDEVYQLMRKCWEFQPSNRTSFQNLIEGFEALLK
T1 sequence (O60674 808-1132): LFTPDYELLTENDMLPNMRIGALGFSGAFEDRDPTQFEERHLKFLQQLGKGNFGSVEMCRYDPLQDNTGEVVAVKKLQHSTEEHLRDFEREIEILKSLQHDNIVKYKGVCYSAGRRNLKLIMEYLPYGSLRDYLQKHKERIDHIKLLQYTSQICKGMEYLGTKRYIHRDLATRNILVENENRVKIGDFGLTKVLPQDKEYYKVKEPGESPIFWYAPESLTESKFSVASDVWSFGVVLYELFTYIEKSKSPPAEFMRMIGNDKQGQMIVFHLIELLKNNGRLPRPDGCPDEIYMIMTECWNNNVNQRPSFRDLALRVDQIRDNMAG

`c1cc(N2CCC(OCC3CC3)C2)c2c(cnc3[nH]ccc32)n1` (stereo not shown) [Ex. 59, 9-[3-(cyclopropylmethoxy)pyrrolidin-1-yl]-3H-pyrrolo[3,2-f][1,7]naphthyridine]: the IC50 (as a rule, the concentration that gives 50% inhibition) in test [1] is > 20 nM; in test [2], 1 to 20 nM.
Turning to `N#CCC(=O)N1CCC[C@H](c2ncnc3cnc4[nH]ccc4c23)C1` [Ex. 23B, (S)3-Oxo-3-[3-(3H-3,4,6,8-tetraazacyclopenta[a]naphthalen-9-yl)-piperidin-1-yl]-propionitrile], the IC50 in test [1] and in test [2] was 1 to 20 nM throughout.
As to `O=C(CC(F)(F)F)N1CCN(c2ccnc3cnc4[nH]ccc4c23)CC1` [Ex. 103, 3,3,3-trifluoro-1-[4-(3H-pyrrolo[3,2-f][1,7]naphthyridin-9-yl)piperazin-1-yl]propan-1-one], the IC50 in test [2] and in test [3] was > 20 nM in each case.
With `CC(C)NC(=O)C1CCN(c2ccnc3cnc4[nH]ccc4c23)CC1` [Ex. 75, N-isopropyl-1-(3H-pyrrolo[3,2-f][1,7]naphthyridin-9-yl)piperidine-4-carboxamide], the IC50 in test [2] and in test [3] was > 20 nM in each case.
With `O=S(=O)(C1CC1)N1CCCC(c2ccnc3cnc4[nH]ccc4c23)C1` (stereo not shown) [Ex. 6, 9-(1-cyclopropylsulfonyl-3-piperidyl)-3H-pyrrolo[3,2-f][1,7]naphthyridine], the IC50 in test [2] and in test [3] was 1 to 20 nM throughout.
For `CC1CCC(C(=O)NC2CC2)CN1c1ccnc2cnc3[nH]ccc3c12` (single isomer, unassigned) [Ex. 88A, cis-N-cyclopropyl-6-methyl-1-(3H-pyrrolo[3,2-f][1,7]naphthyridin-9-yl)piperidine-3-carboxamide], the 50% inhibitory concentration (IC50) in test [2] is 1 to 20 nM; in test [3], > 20 nM.
For `CC(C)OC(=O)N1CCCC(c2ccnc3cnc4[nH]ccc4c23)C1` (stereo not shown) [Ex. 52, Isopropyl 3-(3H-pyrrolo[3,2-f][1,7]naphthyridin-9-yl)piperidine-1-carboxylate], the IC50 in test [1] and in test [2] was 1 to 20 nM each time.
Regarding `O=C(CC(F)(F)F)N1CCC(c2ccnc3cnc4[nH]ccc4c23)CC1` [Comp. 88, 3,3,3-trifluoro-1-[4-(3H-pyrrolo[3,2-f][1,7]naphthyridin-9-yl)-1-piperidyl]propan-1-one], the IC50 in test [2] and in test [3] was > 20 nM in each case.
As for `CC1CCC(C(=O)NC2CC2)CN1c1ccnc2cnc3[nH]ccc3c12` (single isomer, unassigned) [Ex. 88B, trans-N-cyclopropyl-6-methyl-1-(3H-pyrrolo[3,2-f][1,7]naphthyridin-9-yl)piperidine-3-carboxamide], the IC50 in test [2] was 1 to 20 nM; in test [3] it was > 20 nM.
As to `CN(CC1CC1)C1CCN(c2ccnc3cnc4[nH]ccc4c23)C1` (stereo not shown) [Ex. 62, N-(cyclopropylmethyl)-N-methyl-1-(3H-pyrrolo[3,2-f][1,7]naphthyridin-9-yl)pyrrolidin-3-amine], the IC50 in test [1] and in test [2] was > 20 nM throughout.
In the case of `O=C(C1CC1)N1CCCC(c2ccnc3cnc4[nH]ccc4c23)C1` (stereo not shown) [Ex. 2, cyclopropyl-[3-(3H-pyrrolo[3,2-f][1,7]naphthyridin-9-yl)-1-piperidyl]methanone], the half-maximal inhibitory concentration (IC50) in test [2] and in test [3] was 1 to 20 nM each time.
In the case of `O=S(=O)(CC(F)(F)F)N1CCN(c2ccnc3cnc4[nH]ccc4c23)CC1` [Ex. 104, 9-[4-(2,2,2-trifluoroethylsulfonyl)piper-azin-1-yl]-3H-pyrrolo[3,2-f][1,7]naphthyridine], the IC50 in test [2] and in test [3] was > 20 nM each time.
Consider `CN(CC(F)(F)F)C(=O)C1CCCN(c2ccnc3cnc4[nH]ccc4c23)C1` (stereo not shown) [Ex. 80, N-methyl-1-(3H-pyrrolo[3,2-f][1,7]naphthyridin-9-yl)-N-(2,2,2-trifluoroethyl)piperidine-3-carboxamide], for which the IC50 in test [2] and in test [3] was 1 to 20 nM in each case.
On to `CN(C(=O)CC1CC1)C1CCCN(c2ccnc3cnc4[nH]ccc4c23)C1` (stereo not shown) [Ex. 63, 2-cyclopropyl-N-methyl-N-[1-(3H-pyrrolo[3,2-f][1,7]naphthyridin-9-yl)-3-piperidyl]acetamide], for which the IC50 in test [2] and in test [3] was > 20 nM throughout.
Regarding `O=C(NC1CC1)[C@H]1CCCN(c2ccnc3cnc4[nH]ccc4c23)C1` [Ex. 61A, (3S)-N-cyclopropyl-1-(3H-pyrrolo[3,2-f][1,7]naphthyridin-9-yl)piperidine-3-carboxamide], the IC50 in test [1] and in test [2] was > 20 nM each time.
`O=C(CC(F)(F)F)N1CCC[C@H](c2ncnc3cnc4[nH]ccc4c23)C1` [Ex. 24B, (S)3,3,3-Trifluoro-1-[3-(3H-3,4,6,8-tetraazacyclopenta[a]naphthalen-9-yl)-piperidin-1-yl]-propan-1-one]: the IC50 in test [1] and in test [2] was 1 to 20 nM each time.
As to `O=S(=O)(CC(F)(F)F)NC1CCN(c2ccnc3cnc4[nH]ccc4c23)C1` (stereo not shown) [Ex. 90, 2,2,2-trifluoro-N-[1-(3H-pyrrolo[3,2-f][1,7]naphthyridin-9-yl)pyrrolidin-3-yl] ethanesulfonamide], the IC50 in test [1] and in test [2] was 1 to 20 nM throughout.
For `CC(C)C(=O)N1CCCC(c2ccnc3cnc4[nH]ccc4c23)C1` (stereo not shown) [Ex. 3, 2-methyl-1-[3-(3H-pyrrolo[3,2-f][1,7]naphthyridin-9-yl)-1-piperidyl]propan-1-one], the IC50 in test [2] and in test [3] was > 20 nM throughout.
With `CC(C)(C)OC(=O)N1CCCC(c2ccnc3cnc4[nH]ccc4c23)C1` (stereo not shown) [Comp. 41, tert-butyl 3-(3H-pyrrolo[3,2-f][1,7]naphthyridin-9-yl)piperidine-1-carboxylate], the concentration for half-maximal inhibition (IC50) in test [2] and in test [3] was 1 to 20 nM each time.
Turning to `N#CCS(=O)(=O)N1CCCC(c2ccnc3cnc4[nH]ccc4c23)C1` (stereo not shown) [Ex. 7, 2-[[3-(3H-pyrrolo[3,2-f][1,7]naphthyridin-9-yl)-1-piperidyl]sulfonyl]acetonitrile], the IC50 in test [2] and in test [3] was 1 to 20 nM throughout.
For the compound `CC(C)CNC(=O)C1CCCN(c2ccnc3cnc4[nH]ccc4c23)C1` (stereo not shown) [Ex. 67, N-isobutyl-1-(3H-pyrrolo[3,2-f][1,7]naphthyridin-9-yl)piperidine-3-carboxamide], the IC50 in test [2] and in test [3] was > 20 nM each time.
On to `CC(C)CS(=O)(=O)N1CCCC(c2ccnc3cnc4[nH]ccc4c23)C1` (stereo not shown) [Ex. 8, 9-(1-isobutylsulfonyl-3-piperidyl)-3H-pyrrolo[3,2-f][1,7]naphthyridine], for which the IC50 in test [2] and in test [3] was 1 to 20 nM each time.
Consider `CN(C(=O)C1CCCN(c2ccnc3cnc4[nH]ccc4c23)C1)C1CC1` (stereo not shown) [Ex. 79, N-cyclopropyl-N-methyl-1-(3H-pyrrolo[3,2-f][1,7]naphthyridin-9-yl)piperidine-3-carboxamide], for which the IC50 was > 20 nM in test [2] and 1 to 20 nM in test [3].
Turning to `CC(C)CC(=O)N1CCCC(c2ccnc3cnc4[nH]ccc4c23)C1` (stereo not shown) [Ex. 5, 3-methyl-1-[3-(3H-pyrrolo[3,2-f][1,7]naphthyridin-9-yl)-1-piperidyl]butan-1-one], the concentration for half-maximal inhibition (IC50) in test [2] is > 20 nM; in test [3], 1 to 20 nM.
The corresponding values for `CS(=O)(=O)NC1CCCN(c2ccnc3cnc4[nH]ccc4c23)C1` (stereo not shown) [Ex. 73, N-[1-(3H-pyrrolo[3,2-f][1,7]naphthyridin-9-yl)-3-piperidyl] methanesulfonamide] are 1 to 20 nM and > 20 nM.
The corresponding values for `CC(C)(C)OC(=O)N1CCC(c2ccnc3cnc4[nH]ccc4c23)C1` (stereo not shown) [Comp. 50, tert-butyl 3-(3H-pyrrolo[3,2-f][1,7]naphthyridin-9-yl)pyrrolidine-1-carboxylate] are > 20 nM and 1 to 20 nM.
The corresponding values for `COCCNC(=O)C1CCN(c2ccnc3cnc4[nH]ccc4c23)CC1` [Ex. 77, N-(2-methoxyethyl)-1-(3H-pyrrolo[3,2-f][1,7]naphthyridin-9-yl)piperidine-4-carboxamide] are > 20 nM and > 20 nM.
On to `CC(C)(C)OC(=O)N1CCN(c2ccnc3cnc4[nH]ccc4c23)CC1` [Comp. 127, tert-butyl 4-(3H-pyrrolo[3,2-f][1,7]naphthyridin-9-yl)piperazine-1-carboxylate], for which the IC50 in test [2] and in test [3] was > 20 nM in each case.
In the case of `O=C(NC1CC1)C1CCN(c2ccnc3cnc4[nH]ccc4c23)CC1` [Ex. 76, N-cyclopropyl-1-(3H-pyrrolo[3,2-f][1,7]naphthyridin-9-yl)piperidine-4-carboxamide], the IC50 in test [2] and in test [3] was > 20 nM in each case.

The values are drawn from US9115133B2, “Substituted fused tricyclic compounds, compositions and medicinal applications thereof” (Advinus Therapeutics Limited, priority 2011, dated 2015).
